Assays:
[1] = test system: tubulin (Tb) and microtubule-associated proteins (MAPs) from mouse brains; test: Tubulin + MAP polymerization assay; type: biochemical; settings: GTP-dependent polymerization, read-out: IC50 of tubulin polymerization (initial rates, optical density at 355 nm)
[2] = test system: human lung epithelial carcinoma cell line A549; test: MTT cytotoxicity assay, A549; type: cell-based; settings: A549, 64 h treatment, MTT, read-out: IC50, nM A549
Excerpt: (§1) The obtained series of verubulin analogues 2a–r (which also included three by-products isolated in the reactions according to Scheme 2) were initially evaluated for cytotoxicity against commonly used human breast cancer cell line MCF7′ (fast-growth subclone), human lung epithelial carcinoma cell line A549 and etiologically non-cancer immortalized lung fibroblast cell line VA13 (WI38 subline 2RA). Cytotoxicity against immortalized human embryonic kidney cell line HEK293T, characterized by a high growth rate, was also studied regarding cytotoxicity against non-cancerous fast-growth cells. A standard MTT assay was performed; verubulin (1) served as a positive reference. The data obtained are presented in Table 1 (for dose–response curves, see Supplementary Materials).
(§2) Human breast cancer cell line MCF7′ and human lung adenocarcinoma cell line A549 were kindly provided by Dr. S. Dmitriev (Lomonosov Moscow State University), immortalized human fibroblast cell line VA13 (WI38 subline 2RA) was kindly provided by Dr. M. Rubtsova (Lomonosov Moscow State University), human embryonic kidney HEK293T cell line was kindly provided by Dr. E. Knyazhanskaya (Lomonosov Moscow State University). MCF7′, VA13, A549 and HEK293T cell lines were maintained in DMEM/F-12 (Thermo Fisher Scientific, Waltham, MA, USA) culture medium containing 10% fetal bovine serum (Thermo Fisher Scientific, Waltham, MA, USA) and 50 μg/mL penicillin and 0.05 mg/mL streptomycin at 37 °C (Thermo Fisher Scientific, Waltham, MA, USA) in 5% CO2. Cells were maintained at 37 °C in a humidified MCO-18AC incubator (Sanyo, Tokyo, Japan) supplied with 5% CO2. Cell cultures were tested for the absence of mycoplasma and validated by STR.
(§3) The cytotoxicity of the substances was tested using the 3-(4,5-dimethylthiazol-2-yl)2,5-diphenyl tetrazolium bromide (MTT) assay with some modifications. A total of 2500 cells per well for the MCF7′, HEK293T, A549 cell lines or 4000 cells per well for the VA-13 cell line were plated out in 135 μL of DMEM-F12 media (Gibco, Thermo Fisher Scientific, Waltham, MA, USA) in a 96-well plate and incubated in the 5% CO2 incubator for the first 20 h without treatment. Then, 15.8 μL of media–DMSO solutions of tested substances (final DMSO concentrations in the media were 0.5% or less) was added to the cells (triplicate each) and cells were treated for 64 h with 0.023 mg/L–50 mg/L (eight dilutions) of compounds 2f,n,o,r; 1.14 μg/L–2.5 mg/L (eight dilutions) of compounds 2a,b,d,g,h,k,l,p,q; 57.2 ng/L–125 μg/L (eight dilutions) of compounds 2e,i,j; 22.9 ng/L–50 μg/L (eight dilutions) of compounds 1,2c,m. Doxorubicin was used as a control substance. Then, the MTT reagent (Paneco LLC, Moscow, Russia) was added to cells up to a final concentration of 0.5 g/L (10 × stock solution in PBS was used) and incubated for 2 h at 37 °C in the incubator, under an atmosphere of 5% CO2. Then, the MTT solution was discarded, and 140 μL of DMSO (PharmaMed LLC, Moscow, Russia) was added. The plates were swayed on a shaker (120 rpm) to dissolve the formazan. The absorbance was measured using a microplate reader (VICTOR X5 Light Plate Reader, PerkinElmer, Waltham, MA, USA) at a wavelength of 555 nm (in order to measure formazan concentration). The results were used to construct dose–response graphs and to estimate IC50 values (IC50 is the concentration resulting in half of the maximal cytotoxic effect) with GraphPad Prism V, GraphPadSoftware, Inc., San Diego, CA, USA.

[3] = test system: immortalized human embryonic kidney cell line HEK293T; test: MTT cytotoxicity assay, HEK293T; type: cell-based; settings: HEK-293T, 64 h treatment, MTT, read-out: IC50, nM HEK293T
Excerpt: as §1, §2, §3

HCT116 cell line = test: MTT cytotoxicity towards HCT116; type: cell-based, human; settings: HCT-116; HCT116, human colon carcinoma; read-out: IC50
[4] = test system: hTERT-immortalized human fibroblasts; test: MTT assay of nanocontainer formulations, fibroblasts; type: cell-based; settings: Fibroblast, 48 h treatment, 2c concentration in formulations = 0.1 × COO− concentration
Method: The MTT assay was carried out on the A549 cell line and non-tumor hTERT-immortalized human fibroblasts for 48 h (Table 2; for cell survival curves, see Supplementary Materials).
Lung adenocarcinoma A549, breast adenocarcinoma MDA-MB-231 and non-tumor fibroblasts immortalized with h-TERT cell lines were obtained from the American Type Culture Collection (Manassas, VA, USA). Cells were routinely propagated in Dulbecco’s modified Eagle’s medium (DMEM) supplemented with 10% fetal bovine serum (HyClone, Logan, UT, USA), 2 mM L-glutamine, 100 U/mL penicillin and 100 μg/mL streptomycin (PanEco, Moscow, Russia) at 37 °C, 5% CO2 in a humidified atmosphere. Cells in the logarithmic phase of growth were used in the experiments.
The cytotoxicity of compounds for human cell lines (A549, MDA-MB-231, non-tumor fibroblasts) was assessed in MTT assays. […]
Cytotoxicity was assessed in a formazan conversion assay (MTT test) after a 48 h exposure. After the completion of drug exposure, 0.5 mg/mL 3-(4,5-dimethylthiazol-2-yl)-2,5-diphenyltetrazolium bromide (MTT reagent) was added to cells for 2 h, the culture medium was removed, cells were resuspended in 100 μL DMSO and the optical densities were measured on a Multiscan FC plate spectrophotometer (Thermo Fisher Scientific, Waltham, MA, USA) at a wavelength of 571 nm. […]

[5] = test system: human breast cancer cell line MCF7′; test: MTT cytotoxicity assay, MCF7′; type: cell-based; settings: MCF7, 64 h treatment, MTT, read-out: IC50, nM MCF7′
Excerpt: as §1, §2, §3

With `COc1ccc(N(C)c2nc(C)nc3c2CCCC3)cc1` [Compound 2c, N-(4-methoxyphenyl)-N,2-dimethyl-5,6,7,8-tetrahydroquinazolin-4-amine] as the molecule, how does the IC50 [1] read?
Its IC50 is 7.2 ± 1.9 µM.

And the IC50 [2]?
The IC50 was 2.7 ± 0.4 nM.

What about the IC50 [3] of the same molecule?
The IC50 was 2.9 ± 0.5 nM.

And the IC50 (HCT116 cell line)?
Its IC50 is 0.2 ± 0.01 nM.

And the IC50 [4]?
The IC50 was 4.2 ± 0.3 µM.

And the IC50 [5]?
Its IC50 is 3.6 ± 0.4 nM.

Source: publication PMC10610134, “Verubulin (Azixa) Analogues with Increased Saturation: Synthesis, SAR and Encapsulation in Biocompatible Nanocontainers Based on Ca^2+ or Mg^2+ Cross-Linked Alginate” (Pharmaceuticals, 2023)
